Source: patent US10745454B2, “Method of synthesizing antagonist peptides for cell growth” (priority 2018, dated 2020)
Values belong to the compound of their own block, whether it stands above or below them.

Assays:
[1] = molecular target: T1, bFGFR-1 (receptor) (Homo sapiens, UniProt P11362); assay: Competitive binding assay with bFGFR-1 in HUVECs (immunofluorescence); conditions: peptide 1000-2000 ng/ml overnight
T1 construct: with bFGFR-1 (receptor) in Human Umbilical Vein Endothelial Cells (HUVECs); endogenous in cells; host or cells: HUVEC (Human Umbilical Vein Endothelial Cells)
Description: Binding Assay—To assess competitive binding assay of bFGF antagonist, Human Umbilical Vein Endothelial Cells(HUVECs) are cultured in 96-well plates (5000 cells/well) with DMEM and 5% fetal bovine serum (FBS) incubated at 37° C. for overnight. After 24 h, the media in the 96-well plates is changed with DMEM without FBS and the cells are treated (except the control 96-well plates) with 1000-2000 ng/ml the peptides at 37° C. for overnight. The cells are fixed by 4% paraformaldehyde at room temperature for 5-10 min. After 5-10 minutes the cells are rinsed with phosphate buffer saline (PBS), permeabilized with PBS+0.3% Triton X-100. The […] with a mixture comprising 10% normal goat serum, bovine serum albumin (BSA) 1% PBST for 20 minutes in the room temperature. After 20 minutes the cells are subjected to anti-FGFR-1 (5000 ng/ml, Ab10646) with FITC-secondary (Ab6717) antibody and stained with propidium iodide (Sigma Aldrich, USA, P4170) (1 μg/ml) for nuclear staining. The cell-binding is analyzed by NIH Image J software.

[2] = test system: PI3K/AKT and MAPK/ERK1/2 pathways; assay: Quantitative Western blot of PI3K/AKT and MAPK/ERK1/2 activation in 4T1 tumor extracts; type: in vivo, murine
Description: In vivo Tumor Growth Regression-Animal studies are conducted according to relevant national and international guidelines of the Weatherall report and Institutional Animal Care and Use Committee (IACUC) of Tehran University of Medical Sciences. The tumors induced in the female BALB/c mice (5 weeks old) are purchased from the Laboratory Animal Center of Iran Pasteur Institute and maintained under 12 h dark and light cycle. The 4T1 tumor model mouse are sterilized and established from the breast cancer bearing BALB/c mice by a standard protocol. The 4T1 tumor model mouse are prepared by cutting the tumor into pieces of <0.3 cm3. The tumor pieces are subcutaneously transplanted into the left flank of the mouse under ketamine (100 mg/kg, i.p.) and xylazine (10 mg/kg, i.p.) anesthesia. The mouse carrying tumors with a tumor size reaching to 400 mm3 are randomized and divided into groups. Each group of tumor induced mice comprises 6 mouse. The first group is treated with vascular endothelial growth factor (VEGF). The second group is treated with phosphate buffer saline. The first group or treated groups receives daily 1, 2.5 and 10 mg/kg i.p. of VEGF-antagonistic peptides compared to PBS control group for two weeks. The tumor volume is measured every two days by a digital Vernier caliper (Mitutoyo, japan), using the following formula: v=a2×b×0.52 (where “a” is the shortest and “b” is the longest diameter).
The tumor tissues from control and peptide-treated (cultured cells or mice) are lysed with RIPA lysis buffer. […] Protein concentrations are assessed by Bradford assay. […]
The premium nitrocellulose western blotting membranes are washed with TBST and incubated with horseradish peroxidase-conjugated goat anti-mouse IgG secondary antibody. […] The quantitative analysis of protein expression to the reference protein, repeated at least three times, is performed using ImageJ. […]

[3] = test system: HUVECs; assay: Matrigel tube formation assay, bFGF antagonist; type: cell-based, human; conditions: peptide 2000 ng/ml
[4] = test system: ovarian cancer cell line SKOV3; assay: bFGF-induced SKOV3 proliferation assay (MTT); type: cell-based, human; conditions: for bFGF-induced proliferation of SKOV3: hr-bFGF, peptide 25-1000 ng/ml, 5-6 days
Description: Cell Proliferation Assay—To analyze the ability of basic fibroblast growth factor (bFGF) antagonist peptide to inhibit the bFGF-induced cell proliferation, the ovarian cell line SKOV3 is utilized. The SKOV3 cell line is found to be dependent on bFGF for cellular proliferation. For cell culture, SKOV3 cells are maintained in DMEM supplemented with 5% FBS, 1% streptomycin, penicillin, […] glutamine and is mycoplasma free.
For estimating the anti-proliferative activity of bFGF, SKOV3 is plated at 1×10^4 cell per well in a 24 well dish in 1 ml DMEM, the cells are maintained in DMEM and treated with human recombinant bFGF (hr-bFGF) (0-100 ng/ml) alone and in combination with different concentration of the antagonistic peptide (25-1000 ng/ml) every other day for total 5-6 days. The experiment is terminated when cells are in confluence. The MTT assay is performed. The absorbance is determined at 540 nm. The results are expressed as the mean of triplicate experiments (+SD). One-way analysis of variance is used to determine significance.

[5] = test system: 4T1 tumor; assay: Histopathological staining of angiogenesis markers CD31 and CD34 in 4T1 tumors of treated mice; type: in vivo, BALB/c mice; conditions: 4T1 tumor tissue; i.p. daily, two weeks
Description: In vivo Tumor Growth Regression-Animal studies are conducted according to relevant national and international guidelines of the Weatherall report and Institutional Animal Care and Use Committee (IACUC) of Tehran University of Medical Sciences. The tumors induced in the female BALB/c mice (5 weeks old) are purchased from the Laboratory Animal Center of Iran Pasteur Institute and maintained under 12 h dark and light cycle. The 4T1 tumor model mouse are sterilized and established from the breast cancer bearing BALB/c mice by a standard protocol. The 4T1 tumor model mouse are prepared by cutting the tumor into pieces of <0.3 cm3. […] The tumor volume is measured every two days by a digital Vernier caliper (Mitutoyo, japan), using the following formula: v=a2×b×0.52 (where “a” is the shortest and “b” is the longest diameter).
Histopathological analyses—The excised tumor tissues are fixed in formalin (4%), embedded in paraffin, sectioned and stained against CD31, CD34, Ki-67, P53, Bcl-2 and TUNEL. […] To count microvessels of the murine breast cancer tissue, the 5 randomly selected vascularized areas are counted under scale bar 100 and 20 μm. The microvascular density (MVD) of the tumor is measured and evaluated by the standard protocol. The microvessels are manually counted on the images at scale bar of 20 μm. […]

[6] = test system: endothelial cell; conditions: Alzheimer's disease context; cited from earlier work
[7] = test system: adipose tissue; conditions: mice; cited from earlier work
[8] = listed as bFGF antagonistic peptide
[9] = 4T1 mammary carcinoma tumor tissues

T1 sequence (P11362 22-822): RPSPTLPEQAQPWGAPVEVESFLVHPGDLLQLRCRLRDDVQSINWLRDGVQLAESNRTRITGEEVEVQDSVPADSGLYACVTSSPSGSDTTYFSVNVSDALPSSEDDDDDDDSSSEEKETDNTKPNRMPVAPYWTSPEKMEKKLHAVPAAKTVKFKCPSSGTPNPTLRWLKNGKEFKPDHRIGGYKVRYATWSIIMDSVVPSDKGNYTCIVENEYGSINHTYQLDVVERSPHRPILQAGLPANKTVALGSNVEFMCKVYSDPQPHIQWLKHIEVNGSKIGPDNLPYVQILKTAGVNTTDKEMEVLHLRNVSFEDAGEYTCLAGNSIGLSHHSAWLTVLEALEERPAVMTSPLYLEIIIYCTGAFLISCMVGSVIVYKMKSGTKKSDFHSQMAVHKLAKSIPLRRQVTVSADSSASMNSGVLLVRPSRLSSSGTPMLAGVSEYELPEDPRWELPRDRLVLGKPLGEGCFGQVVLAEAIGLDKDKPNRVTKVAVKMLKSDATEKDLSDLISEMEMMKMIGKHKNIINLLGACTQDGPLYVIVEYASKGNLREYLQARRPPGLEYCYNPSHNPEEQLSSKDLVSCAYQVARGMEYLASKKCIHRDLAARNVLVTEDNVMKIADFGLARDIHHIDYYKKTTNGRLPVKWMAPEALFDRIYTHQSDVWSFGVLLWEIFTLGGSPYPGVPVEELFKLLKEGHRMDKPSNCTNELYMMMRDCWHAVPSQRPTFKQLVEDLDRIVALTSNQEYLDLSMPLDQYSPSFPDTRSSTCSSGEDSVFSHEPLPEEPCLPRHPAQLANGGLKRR

- binding to bFGFR-1 [1]: recognizes bFGFR
- binding to bFGFR-1 [1, 8]: recognizes and binds
Compound: 2HN-Leu119-Lys120-Arg121-Thr122-Gly123-Gln124-Tyr125-Lys126-Leu127-COOH (H-LKRTGQYKL-OH; listed as Homo sapiens) [Seq. ID No. 5, antagonist of bFGF, residues 119-127 of bFGF]
- AKT phosphorylation [2, 9]: able to block
- ERK1/2 phosphorylation [2, 9]: able to block
- difference in p-AKT or p-ERK inhibition levels between dosages ([2]; dosages 1 and 10 mg/kg): no significant difference
- anti-angiogenic activity, Matrigel assay [3]: inhibits the angiogenesis process
- bFGF-induced proliferation of SKOV3 [4]: suppressing bFGF-induced proliferation
- bFGF-induced proliferation of SKOV3 ([4]; listed as bFGF antagonist peptide): inhibits the bFGF-induced proliferation of ovarian cancer cell line SKOV3 in a dose-dependent manner
- bFGF-induced proliferation of SKOV3 [4, 8]: inhibit the proliferation
- SKOV3 cell proliferation at 400 ng/ml peptide ([4]; peptide 400 ng/ml): reduced
- anti-angiogenic effect, staining of angiogenesis marker CD31 [5]: inhibits the angiogenesis
- anti-angiogenic effect, staining of angiogenesis marker CD34 [5]: inhibits the angiogenesis

Compound: CN(C)c1ccc(/C=C2\C(=O)Nc3ccccc32)cc1 [SU 4312]
- vessel formation [6]: could be blocked

Compound: CO[C@@H]1[C@H](OC(=O)NC(=O)CCl)CC[C@]2(CO2)[C@H]1[C@@]1(C)O[C@@H]1CC=C(C)C [TNP-470]
- diet-induced and genetic obesity [7]: able to prevent
- vascularity in the adipose tissue [7]: reduced
